Reference: patent publication US10570184B2, “GLP-1/glucagon receptor co-agonists for medical use” (Novo Nordisk A/S, priority 2014, dated 2020)
Starred links: 1 amine or outer side, 2 acyl side, 3 side chain; linkers in the order of their positions; H or OH if unused. Non-standard residues stand in square brackets, D forms with d. Residues, ends and D or L forms follow the SMILES beside them. Groups on a side chain read outwards from the residue. *: point of attachment. C18 diacid = O=C(O)CCCCCCCCCCCCCCCCC(=O)*; γGlu = O=C(O)[C@H](CCC(=O)[*:2])N[*:1]; Ac4c = NC1(C(=O)O)CCC1; AEEA = NCCOCCOCC(=O)O; Aib = CC(C)(N)C(=O)O

Target: T1, human GLP-1 receptor (Homo sapiens, UniProt P43220)
T1 construct: expressed in transfected cells; host or cells: membranes of BHK cells (parent BHKTS13), clone FCW467-12A
T1 sequence (P43220 24-463): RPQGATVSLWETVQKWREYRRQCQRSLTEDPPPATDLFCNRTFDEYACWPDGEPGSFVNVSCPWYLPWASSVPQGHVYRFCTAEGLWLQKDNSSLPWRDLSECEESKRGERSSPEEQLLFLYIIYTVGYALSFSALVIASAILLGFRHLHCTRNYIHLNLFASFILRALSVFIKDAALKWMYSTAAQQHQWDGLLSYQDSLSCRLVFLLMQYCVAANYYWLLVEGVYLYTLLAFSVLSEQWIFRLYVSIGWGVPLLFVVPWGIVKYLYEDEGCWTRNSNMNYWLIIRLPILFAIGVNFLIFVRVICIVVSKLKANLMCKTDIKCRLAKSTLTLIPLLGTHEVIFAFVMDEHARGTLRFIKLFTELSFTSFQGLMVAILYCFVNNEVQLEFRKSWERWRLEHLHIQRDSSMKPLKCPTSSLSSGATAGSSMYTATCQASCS
Test: Assay (II)(a) GLP-1 receptor binding, 125I-GLP-1 displacement SPA on BHK membranes
Details: without presence of serum albumin; read-out: GLP-1R IC50 (nM) [Assay (II)(a)]
In short: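 Membranes from BHK cells (clone FCW467-12A) stably expressing human GLP-1R were incubated with serially diluted compounds (8×10EE-13 to 8×10EE-7 M before addition) and [125I]-GLP-1-(7-36)NH2 with WGA SPA beads, 2 h at 30° C, pH 7.4. IC50 taken from displacement by non-linear regression. Run at ≤0.001% or 2.0% final serum albumin.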

Compared with `CC[C@H](C)[C@H](NC(=O)[C@H](CC(C)C)NC(=O)[C@H](Cc1c[nH]c2ccccc12)NC(=O)[C@H](CCC(N)=O)NC(=O)[C@@H](NC(=O)[C@H](Cc1ccccc1)NC(=O)[C@H](CCC(=O)O)NC(=O)[C@H](CCCNC(=N)N)NC(=O)[C@H](C)NC(=O)[C@H](CCCNC(=N)N)NC(=O)[C@H](CCCNC(=N)N)NC(=O)[C@H](C)NC(=O)[C@H](CC(=O)O)NC(=O)[C@H](CC(C)C)NC(=O)[C@H](Cc1ccc(O)cc1)NC(=O)[C@H](CCCCN)NC(=O)[C@H](CO)NC(=O)[C@H](CC(C)C)NC(=O)[C@H](CC(=O)O)NC(=O)[C@H](CO)NC(=O)[C@@H](NC(=O)[C@H](Cc1ccccc1)NC(=O)[C@@H](NC(=O)CNC(=O)[C@H](CCC(N)=O)NC(=O)C(C)(C)NC(=O)[C@@H](N)Cc1c[nH]cn1)[C@@H](C)O)[C@@H](C)O)C(C)C)C(=O)N[C@@H](CO)C(=O)N[C@@H](CCCCNC(=O)CC[C@H](NC(=O)CC[C@H](NC(=O)COCCOCCNC(=O)COCCOCCNC(=O)CC[C@H](NC(=O)CCCCCCCCCCCCCCCCC(=O)O)C(=O)O)C(=O)O)C(=O)O)C(N)=O` [Chem. 28, N^ε29-[(4S)-4-carboxy-4-[[(4S)-4-carboxy-4-[[2-[2-[2-[[2-[2-[2-[[(4S)-4-carboxy-4-(17-carboxyheptadecanoylamino)butanoyl]amino]ethoxy]ethoxy]acetyl]amino]ethoxy]ethoxy]acetyl]amino]butanoyl]amino]butanoyl]-[Aib2,Leu10,Ala16,Arg20,Glu21,Ile27,Ser28,Lys29]-Glucagon amide] (H-H[Aib]QGTFTSDLSKYLDARRAREFVQWLISK([γGlu-γGlu-AEEA-AEEA-γGlu-C18 diacid])-NH2; N-terminus assumed), `CC[C@H](C)[C@H](NC(=O)[C@H](CC(C)C)NC(=O)[C@H](Cc1c[nH]c2ccccc12)NC(=O)[C@H](C)NC(=O)[C@@H](NC(=O)[C@H](Cc1ccccc1)NC(=O)[C@H](CC(=O)O)NC(=O)[C@H](CCC(N)=O)NC(=O)[C@H](C)NC(=O)[C@H](CCCNC(=N)N)NC(=O)[C@H](CCCNC(=N)N)NC(=O)[C@H](CO)NC(=O)[C@H](CCC(=O)O)NC(=O)[C@H](CC(C)C)NC(=O)[C@H](Cc1ccc(O)cc1)NC(=O)[C@H](CCCCN)NC(=O)[C@H](CO)NC(=O)[C@H](Cc1ccc(O)cc1)NC(=O)[C@H](CC(=O)O)NC(=O)[C@H](CO)NC(=O)[C@@H](NC(=O)[C@H](Cc1ccccc1)NC(=O)[C@@H](NC(=O)CNC(=O)[C@H](CCC(N)=O)NC(=O)C(C)(C)NC(=O)[C@@H](N)Cc1c[nH]cn1)[C@@H](C)O)[C@@H](C)O)C(C)C)C(=O)N[C@@H](CCCCNC(=O)CC[C@H](NC(=O)CC[C@H](NC(=O)COCCOCCNC(=O)COCCOCCNC(=O)CC[C@H](NC(=O)CCCCCCCCCCCCCCCCC(=O)O)C(=O)O)C(=O)O)C(=O)O)C(=O)N[C@H](C(N)=O)[C@@H](C)O` [Chem. 34, N^ε28-[(4S)-4-carboxy-4-[[(4S)-4-carboxy-4-[[2-[2-[2-[[2-[2-[2-[[(4S)-4-carboxy-4-(17-carboxyheptadecanoylamino)butanoyl]amino]ethoxy]ethoxy]acetyl]amino]ethoxy]ethoxy]acetyl]amino]butanoyl]amino]butanoyl]-[Aib2,Glu15,Ala24,Ile27,Lys28]-Glucagon amide] (H-H[Aib]QGTFTSDYSKYLESRRAQDFVAWLIK([γGlu-γGlu-AEEA-AEEA-γGlu-C18 diacid])T-NH2) is 11-fold higher in IC50: 0.2 nM for the first, 2.2 nM for the second. The first is the more potent here.

Compared with `CC[C@H](C)[C@H](NC(=O)[C@H](CC(C)C)NC(=O)[C@H](Cc1c[nH]c2ccccc12)NC(=O)[C@H](C)NC(=O)[C@@H](NC(=O)[C@H](Cc1ccccc1)NC(=O)[C@H](CC(=O)O)NC(=O)[C@H](CCCNC(=N)N)NC(=O)[C@H](C)NC(=O)[C@H](CCCNC(=N)N)NC(=O)[C@H](CCCNC(=N)N)NC(=O)[C@H](C)NC(=O)[C@H](CC(=O)O)NC(=O)[C@H](CC(C)C)NC(=O)[C@H](Cc1ccc(O)cc1)NC(=O)[C@H](CCCCN)NC(=O)[C@H](CO)NC(=O)[C@H](Cc1ccc(O)cc1)NC(=O)[C@H](CC(=O)O)NC(=O)[C@H](CO)NC(=O)[C@@H](NC(=O)[C@H](Cc1ccccc1)NC(=O)[C@@H](NC(=O)CNC(=O)[C@H](CCC(N)=O)NC(=O)C(C)(C)NC(=O)[C@@H](N)Cc1c[nH]cn1)[C@@H](C)O)[C@@H](C)O)C(C)C)C(=O)N[C@@H](CCCCNC(=O)CC[C@H](NC(=O)CC[C@H](NC(=O)COCCOCCNC(=O)COCCOCCNC(=O)CC[C@H](NC(=O)CCCCCCCCCCCCCCCCC(=O)O)C(=O)O)C(=O)O)C(=O)O)C(=O)N[C@H](C(N)=O)[C@@H](C)O` [Chem. 32, N^ε28-[(4S)-4-carboxy-4-[[(4S)-4-carboxy-4-[[2-[2-[2-[[2-[2-[2-[[(4S)-4-carboxy-4-(17-carboxyheptadecanoylamino)butanoyl]amino]ethoxy]ethoxy]acetyl]amino]ethoxy]ethoxy]acetyl]amino]butanoyl]amino]butanoyl]-[Aib2,Ala16,Arg20,Ala24,Ile27,Lys28]-Glucagon amide] (H-H[Aib]QGTFTSDYSKYLDARRARDFVAWLIK([γGlu-γGlu-AEEA-AEEA-γGlu-C18 diacid])T-NH2), `CC[C@H](C)[C@H](NC(=O)[C@H](CC(C)C)NC(=O)[C@H](Cc1c[nH]c2ccccc12)NC(=O)[C@H](CCC(N)=O)NC(=O)[C@@H](NC(=O)[C@H](Cc1ccccc1)NC(=O)[C@H](CC(=O)O)NC(=O)[C@H](CCCNC(=N)N)NC(=O)[C@H](C)NC(=O)[C@H](CCCNC(=N)N)NC(=O)[C@H](CCCNC(=N)N)NC(=O)[C@H](CO)NC(=O)[C@H](CCC(=O)O)NC(=O)[C@H](CC(C)C)NC(=O)[C@H](Cc1ccc(O)cc1)NC(=O)[C@H](CCCNC(=N)N)NC(=O)[C@H](CO)NC(=O)[C@H](Cc1ccc(O)cc1)NC(=O)[C@H](CC(=O)O)NC(=O)[C@H](CO)NC(=O)[C@@H](NC(=O)[C@H](Cc1ccccc1)NC(=O)[C@@H](NC(=O)CNC(=O)[C@H](CCC(N)=O)NC(=O)C1(NC(=O)[C@@H](N)Cc2c[nH]cn2)CCC1)[C@@H](C)O)[C@@H](C)O)C(C)C)C(=O)N[C@@H](CCCCNC(=O)CC[C@H](NC(=O)COCCOCCNC(=O)CC[C@H](NC(=O)COCCOCCNC(=O)CC[C@H](NC(=O)COCCOCCNC(=O)CC[C@H](NC(=O)CC[C@H](NC(=O)CCCCCCCCCCCCCCCCC(=O)O)C(=O)O)C(=O)O)C(=O)O)C(=O)O)C(=O)O)C(=O)N[C@H](C(N)=O)[C@@H](C)O` [Chem. 36, N^ε28-[(4S)-4-carboxy-4-[[2-[2-[2-[[(4S)-4-carboxy-4-[[2-[2-[2-[[(4S)-4-carboxy-4-[[2-[2-[2-[[(4S)-4-carboxy-4-[[(4S)-4-carboxy-4-(17-carboxyheptadecanoylamino)butanoyl]amino]butanoyl]amino]ethoxy]ethoxy]acetyl]amino]butanoyl]amino]ethoxy]ethoxy]acetyl]amino]butanoyl]amino]ethoxy]ethoxy]acetyl]amino]butanoyl]-[Acb2,Arg12,Glu15,Arg20,Ile27,Lys28]-Glucagon amide] (H-H[Ac4c]QGTFTSDYSRYLESRRARDFVQWLIK([γGlu-AEEA-γGlu-AEEA-γGlu-AEEA-γGlu-γGlu-C18 diacid])T-NH2; N-terminus assumed) is 5-fold higher in IC50: 0.3 nM for the first, 1.5 nM for the second.
